Data from patent EP0103895A2, “Novel hydroxylamine derivatives, production and use thereof” (MEIJI SEIKA KABUSHIKI KAISHA, priority 1982, dated 1984).
Several values for one entry are separate records, joined by “and”; a condition that tells them apart may be missing. Equal entries are not always repeated. Where two headings read alike, the source gives them in different places.

Experiments:
[1] = system: fowl roundworm (Ascaridia galli); test: Anthelmintic test in chickens artificially infected with fowl roundworm, single oral dose in gelatin capsule, worm bodies counted within 48 hours (Test Examples A1, B1, C1, D1); assay type: in vivo; conditions: Ascaridia galli, po, 48 h, read-out: Anthelmintic effect after 48 hours
Procedure: Chickens infected artificially with fowl roundworm (Ascaridia galli) were employed in groups each consisting of three chickens. Fecal matter testing was conducted before administration of medicine to confirm infection with the worm. The quantity of the compound provided for testing was 10 mg and 20 mg per Kg of body weight, which was orally administered each in a gelatin capsule to the chicken. The number of worm bodies discharged within 48 hours after administration of medicine was counted, the chicken was killed after 48 hours and the number of worm bodies remaining in the enteron was counted to determine the anthelmintic percentage, wherefrom the antihelmintic effect was judged.
The same as that in Test Example Al.
The same as that in Test Example Al except that the compound provided for testing was in quantities of 30 mg and 50 mg per Kg of body weight, which were orally administered to the chickens in gelatin capsules.
The same as that in Test Example Al, except that the compounds provided for testing were used in quantities of 15 mg and 30 mg per Kg of body weight, which were orally administered each in a gelatin capsule to the chicken.

[2] = system: canine filaria; Dirofilaria immitis; test: Test of anthelmintic effect against canine filaria in naturally infected dogs, subcutaneous injection, microfilaria in blood and adult filaria at autopsy (Test Examples A10, B10, C10, D10); assay type: in vivo; conditions: for inhibition in vivo at 30 mg/kg / inhibition in vivo at 20 mg/kg: Dirofilaria immitis, sc, 240 h
Procedure: Eight dogs infected with canine filaria; Diro- filaria immitis (naturally infected dogs) were employed in groups each of two dogs.
The compounds provided for tests were Compound Nos. Al, A3 and A12. 20 mg of each was administered by subcutaneous injection per Kg of body weight to each of the two dogs as a suspension in 1% "Tween 80" solution once per day for three days. As control, 3 ml of the 1% "Tween 80" solution was subcutaneously injected into two dogs once per day for three days.
Before administration and on the 10th day after administration, 20 µl of earlobe blood of each dog was sampled and examined to determine the change in microfilaria (mf) according to the concentrated smear color method, and judgement on the effect on microfilaria (mf) was made. Judgement relating to adult filaria was made on the 10th day after the last administration by killing the dogs and carrying out autopsis.
30 mg of each compound was administered by subcutaneous injection per Kg of body weight to each of the two dogs as a suspension in 1% "Tween 80" solution once per day for three days. As control, 3 ml of the 1% "Tween 80" solution was subcutaneously injected into two dogs once per day for three days.
30 mg of each compound was administered by subcutaneous injection per Kg of body weight to each of two dogs as a suspension in 1% "Tween 80" solution once per day for three days. As control, 3 ml of the 1% "Tween 80" solution was subcutaneously injected to two dogs once per day for three days.
20 mg of each compound was administered by subcutaneous injection per kg of body weight once per day for three days to each of two dogs. These compounds were administered as a suspension in 1% "Tween 80" in the case of Compound No.Dl3 and as solutions dissolved in distilled water for injection in the case of Compounds Nos. D10 and D16, respectively. As control, 3 ml of the 1% "Tween 80" solution was subcutaneously injected into two dogs once per day for three days.

[3] = system: fowl roundworm (As. galli); test: Anthelmintic test in chickens artificially infected with fowl roundworm, compound added to feed, E.P.G. and worm count up to 21st day (Test Examples A2, B2, C2, D2); assay type: in vivo, Ascaridia galli; conditions: chicken
Procedure: Chickens artificially infected with fowl roundworm (As. galli) were employed in groups each of two chickens.
Fecal matter testing was conducted before initiation of the test and on the 7th, 14th and 21st day after initiation of the test. Reduction in worm egg number was examined by calculating E.P.G. (worm eggs per 1 g of fecal matter), and the number of discharged worm bodies and the number of worm bodies remaining in the enteron when the chicken was killed on 21st day were counted to determine the anthelmintic percentage, from which the anthelmintic effect was judged.

[4] = system: fowl roundworm (As. galli); test: Anthelmintic test in chickens infected with fowl roundworm, compound added to feed at 250 ppm and 1,000 ppm, E.P.G. and worm count on 5th day (Test Example E2); assay type: in vivo, Ascaridia galli; conditions: for E.P.G. after 5 days: worm egg number in 1 g of fecal matter; for anthelmintic effect / inhibition in vivo at 250 ppm / inhibition in vivo at 1000 ppm: 5th day; for inhibition in vivo at 250 ppm / inhibition in vivo at 1000 ppm: Ascaridia galli, feed or water, 120 h, read-out: Anthelmintic effect
Procedure: Chickens infected with fowl roundworm (As. galli) were employed in groups each of two chickens.
The compound provided for the test was dissolved in a small amount of ethyl alcohol and adsorbed on defatted rice bran and added to chicken feed at levels of 250 ppm and 1,000 ppm. As control, a feed containing no such compound was employed.
Fecal matter testing was conducted before initiation of the test and on the 5th day after initiation of the test. The reduction in worm egg count was examined by calculating the E.P.G. (worm egg number in 1 g of fecal matter). The number of discharged worm bodies and the number of worm bodies remaining in the enteron when the chicken was killed on 5th day were counted to determined the anthelmintic percentage, from which the anthelmintic effect was judged.

[5] = system: fowl roundworm (As. galli); test: Anthelmintic test in chickens infected with fowl roundworm, single oral dose of 40 mg per Kg, worm bodies counted within 24 hours (Test Example E1); assay type: in vivo, Ascaridia galli; conditions: 40 mg per Kg oral in gelatin capsule; for inhibition in vivo at 40 mg/kg: Ascaridia galli, 24 h, chicken No.1, read-out: Anthelmintic effect after one day
Procedure: Chickens infected with fowl roundworm (As. galli) were employed in groups each consisting of five chickens. The compound provided for testing was orally administered in a quantity of 40 mg per Kg of body weight to each chicken in a gelatin capsule. The number of worm bodies discharged within 24 hours after administration of the medicine was counted. Then the chicken was killed, and the number of worm bodies remaining in the enteron was counted to determine the anthelmintic percentage, wherefrom the anthelmintic effect was judged.

[6] = dogs, administration of 30 mg/Kg repeated three times, given as about 50% or more, read-out: anthelmintic effect against adult filaria
[7] = dog, 30 mg/Kg x 3, subcutaneous injection, suspension in 1% Tween 80
[8] = dog, 30 mg/Kg x 3, subcutaneous injection, 30 mg/kg
[9] = dogs, administration of 30 mg/Kg repeated three times
[10] = chicken, 30 mg/Kg oral in gelatin capsule, chickens No.1-3
[11] = 1000 ppm in feed, chicken No. 1
[12] = 1000 ppm in feed, chicken No. 2

Row | SMILES | E.P.G. after 5 days ([4]; 250 ppm in feed, chicken No. 1) | anthelmintic effect ([4]; 250 ppm in feed, chicken No. 2) | E.P.G. after 5 days ([4]; 250 ppm in feed, chicken No. 2) | E.P.G. after 5 days [4, 11] | anthelmintic effect [4, 12] | E.P.G. after 5 days [4, 12] | inhibition in vivo at 250 ppm ([4]; 250 ppm in feed, chicken No. 1) | inhibition in vivo at 1000 ppm [4, 11] | inhibition in vivo at 40 mg/kg [5] | Anthelmintic effect after one day ([5]; chicken No.2) | Anthelmintic effect after one day ([5]; chicken No.3) | Anthelmintic effect after one day ([5]; chicken No.4) | Anthelmintic effect after one day ([5]; chicken No.5) | also measured
1 | C=CCN(OCC)C(=O)CC [Compound B9, N-allyl-N-propionyl-O-ethylhydroxylamine] |  |  |  |  |  |  |  |  |  |  |  |  |  | inhibition in vivo at 30 mg/kg ([1]; chickens, 30 mg/Kg orally in gelatin capsule, one value per chicken (No.1-3)): 100%; inhibition in vivo at 50 mg/kg ([1]; chickens, 50 mg/Kg orally in gelatin capsule, one value per chicken (No.1-3)): 100%; inhibition in vivo at 30 mg/kg [2, 6]: ≥ 50%; Number of microfilaria/20 µl on 10th day after the last administration [2, 7]: 0 /20 µl; Effect on adult filaria: Number of worms killed/ Total parasite [2, 8]: 5/7 and 4/8; anthelmintic effect against microfilaria (mf) [2, 9]: marked anthelmintic effect
2 | C=CCON(CC=CC)C(C)=O [Compound C9] |  |  |  |  |  |  |  |  |  |  |  |  |  | inhibition in vivo at 25 ppm ([3]; Ascaridia galli, feed or water, 504 h, 25 ppm in feed, read-out: Anthelmintic effect): 100%; inhibition in vivo at 50 ppm ([3]; Ascaridia galli, feed or water, 504 h, 50 ppm in feed, read-out: Anthelmintic effect): 100%; Change of E.P.G. 21st day ([3]; 25 ppm in feed): 0; Change of E.P.G. 21st day ([3]; 50 ppm in feed): 0; inhibition in vivo at 30 mg/kg [1, 10]: 100%; inhibition in vivo at 50 mg/kg ([1]; chicken, 50 mg/Kg oral in gelatin capsule, chickens No.1-3): 100%; inhibition in vivo at 30 mg/kg ([2]; dog, 30 mg/Kg x 3, subcutaneous injection, read-out: Effect on adult filaria: Percent of worms killed): 70%; inhibition in vivo at 30 mg/kg [2, 6]: ≥ 50%; Number of microfilaria/20 µl On 10th day after the last administration [2, 7]: 0 /20 µl; Effect on adult filaria: Number of worms killed/ Total parasite [2, 8]: 14/20 and 19/27; anthelmintic effect against microfilaria (mf) [2, 9]: marked anthelmintic effect
3 | C#CCNOCC=C [Compound D13, N-propargyl-O-allylhydroxylamine] |  |  |  |  |  |  |  |  |  |  |  |  |  | inhibition in vivo at 15 mg/kg ([1]; chicken, 15 mg/Kg oral in gelatin capsule, chickens No.1-3): 80 to 90%; inhibition in vivo at 30 mg/kg [1, 10]: 100%; inhibition in vivo at 20 mg/kg ([2]; dog, 20 mg/Kg x 3, subcutaneous injection, read-out: Effect on adult filaria: Percent of worms killed): 63%; inhibition in vivo at 20 mg/kg ([2]; dogs, administration of 20 mg/Kg repeated three times, given as about 50% or more, read-out: anthelmintic effect against adult filaria): ≥ 50%; Number of microfilaria/20µl On 10th day after the administration ([2]; dog, 20 mg/Kg x 3, subcutaneous injection): 0 /20µl; Effect on adult filaria: Number of worms killed/ Total parasite ([2]; dog, 20 mg/Kg x 3, subcutaneous injection, 20 mg/kg): 21/33 and 20/30; Number of microfilaria/20µl Before administration ([2]; dog, before 20 mg/Kg x 3 subcutaneous injection (baseline)): 33 /20µl and 26 /20µl; anthelmintic effect against microfilaria (mf) ([2]; dogs, administration of 20 mg/Kg repeated three times): marked anthelmintic effect
4 | C#CCON(CC#C)C(C)=O [Compound E1, N,O-dipropargyl-N-acetylhydroxylamine] | 0 | +++ (100%) | 0 | 0 | +++ (100%) | 0 | 100% | 100% | 100% | +++ (100%) | +++ (100%) | +++ (100%) | +++ (100%) | 
5 | C#CCON(CC#C)C(=O)CC [Compound E2, N,O-dipropargyl-N-propionylhydroxylamine] | 0 | +++ (100%) | 0 | 0 | +++ (100%) | 0 | 100% | 100% | 100% | +++ (100%) | +++ (100%) | +++ (100%) | +++ (100%) | 
6 | C#CCON(CC#C)C(=O)CCC [Compound E3, N,O-dipropargyl-N-butylylhydroxylamine] | 0 | +++ (100%) | 0 | 0 | +++ (100%) | 0 | 100% | 100% | 100% | +++ (100%) | +++ (100%) | +++ (100%) | +++ (100%) | 
7 | C#CCON(CC#C)C(=O)CCCC [Compound E4, N,O-dipropargyl-N-valerylhydroxylamine] | 0 | +++ (100%) | 0 | 0 | +++ (100%) | 0 | 100% | 100% | 100% | +++ (100%) | +++ (100%) | +++ (100%) | +++ (100%) | 
